Reference: paper PMC8153904 (ACS Omega, 2021)
Entries after “also recorded” stand apart in the source; their conditions may differ.

Experiments:
CHIKV-NanoLuc = test: Antiviral activity assay, CHIKV-NanoLuc at low MOI in BHK-21 cells; assay type: cell-based, Chikungunya virus; details: for EC50: Chikungunya virus, BHK-21, 16 h; for viral infection at 100 μM / concentration at which the inhibitory effect appeared: mixtures of four stereoisomers; for concentration at which the inhibitory effect appeared: tested at 1 up to 100 μM
Cytotoxicity assay = assay type: cell-based, hamster; details: hamster, BHK-21 cells, CC50, BHK-21 cells, 24 h, MTT
BHK-21 cells = test: Cytotoxicity assay; assay type: cell-based, hamster; details: for cytotoxic effect over the tested concentrations: concentrations of 1 up to 100 μM, mixtures of four stereoisomers

Compound | EC50 (CHIKV-NanoLuc) [µM] | CC50 at 24 h (Cytotoxicity assay) [µM] | concentration at which cytotoxicity appeared (BHK-21 cells) | other results
Cc1cc(F)cc([C@@H]2C[C@H]2C(=O)NC(C(N)=O)c2ccc(C)c(C(F)(F)F)c2)c1 (stereo partly drawn) [D127] | 29.6 | > 100 | more than 100 μM | –
Cc1cc(C)cc([C@@H]2C[C@H]2C(=O)NC(C(N)=O)c2ccc(C)c(C)c2)c1 (stereo partly drawn) [D27] | – | < 0.1 | 100 nM | cytotoxic effect over the tested concentrations (BHK-21 cells): toxic at all concentrations
Cc1cc(C)cc([C@@H]2C[C@H]2C(=O)NC(C(=O)NCc2ccccc2)c2ccc(C)c(C)c2)c1 (stereo partly drawn) [D160] | 10.5 | > 100 | – | viral infection at 100 μM (CHIKV-NanoLuc; BHK-21 cells): almost completely inhibited; concentration at which the inhibitory effect appeared (CHIKV-NanoLuc; BHK-21 cells): 10 µM; cytotoxic effect over the tested concentrations (BHK-21 cells): no cytotoxic effect
Cc1cc(C)cc([C@@H]2C[C@H]2C(=O)NC(C(=O)NC2CCCC2)c2ccc(C)c(C)c2)c1 (stereo partly drawn) [D164] | 50.5 | > 100 | – | –
Cc1cc(C)cc([C@@H]2C[C@H]2C(=O)NC(C(N)=O)c2ccc(C)c(C(F)(F)F)c2)c1 (stereo partly drawn) [D119] | 32 | > 100 | – | –
COc1ccc(CNC(=O)C(NC(=O)[C@@H]2C[C@H]2c2cc(C)cc(F)c2)c2ccc(C)c(C(F)(F)F)c2)c(OC)c1 (stereo partly drawn) [D166] | – | > 100 | – | antiviral (anti-CHIKV) activity, in words (CHIKV-NanoLuc; BHK-21 cells, CHIKV-NanoLuc, low MOI): complete loss of the activity
Cc1cc(C)cc([C@@H]2C[C@H]2C(=O)NC(C(=O)NC(C)(C)C)c2ccc(C)c(C)c2)c1 (stereo partly drawn) [D161] | 13.9 | > 100 | – | viral infection at 100 μM (CHIKV-NanoLuc; BHK-21 cells): almost completely inhibited; concentration at which the inhibitory effect appeared (CHIKV-NanoLuc; BHK-21 cells): 10 µM; cytotoxicity effect at 100 μM (BHK-21 cells; 100 μM, mixture of four stereoisomers): moderate cytotoxicity effect; also recorded: moderate cytotoxic effect
Cc1cc(C)cc([C@@H]2C[C@H]2C(=O)NC(C(=O)NC2CC2)c2ccc(C)c(C)c2)c1 (stereo partly drawn) [D163] | – | – | more than 10 μM | antiviral activity at the maximum nontoxic concentration (CHIKV-NanoLuc; BHK-21 cells, CHIKV-NanoLuc): no antiviral activity
